Assay results published in patent publication US6699902B2, “Acetyloxymethyl esters and methods for using the same” (Beacon Laboratories, Inc., priority 2000, dated 2004).
pIC50: −log10 of the molar value.

test system: PC-3 prostate breast cancer cells; test: EDR assay, anti-proliferation against PC-3 cells (3H-thymidine incorporation in soft agar); type: cell-based; details: Homo sapiens, PC3 cell line, five days incubation, 3H-TdR incorporation
Experimental: Compounds prepared according to Examples 1-7 were tested for anti-proliferation against PC-3 prostate […] cancer cells. Butyric acid and trichostatin, a potent HDAC inhibitor, were used as reference compounds. Both compounds were purchased from Sigma-Aldrich, Milwaukee, Wis.
The PC3 cell line was maintained in RPMI supplemented with 10% fetal calf serum and antibiotics. The EDR assay was performed as described by Kern and Weisenthal in “Highly Specific Prediction of Antineoplastic Drug Resistance With An In Vitro Assay Using Suprapharmacologic Drug Exposures,” J. Nat. Cancer Inst., 82:582-588 (1990); and Fruehauf and Bosanquet, “In vitro Determination of Drug Response: A Discussion of Clinical Applications,” PPO Updates 7(12):1-16 (1993). Cells were suspended in 0.12% soft agar in complete medium and plated (2,000 cells per well, as determined by preliminary experiments) in different drug concentrations onto a 0.4% agarose underlayer in 24-well plates. Plating cells on agarose underlayers supports the proliferation only of the transformed cells, ensuring that the growth signal stems from the malignant component of the tumor.
All compounds were dissolved in DMSO to 200× stock solutions. Stock solutions were diluted to 20× working solutions using the tissue culture medium, serially diluted and added to the 24-well plates. The concentration range was 0.001 μM to 0.3 μM for trichostatin and 10 μM-1,000 μM for the other compounds. No significant changes in pH of the culture medium were observed under the above conditions. Diluent control wells contained PC3 cells treated with DMSO, at the dilutions used for appropriate drug treatment. All experimental points were represented by two separate wells (duplicates). Positive controls were determined using at least two wells treated with an extremely high dose of cisplatin, an anti-cancer agent. Four wells containing tumor cells that were not treated with drugs served as negative controls in each experiment.
Cells were incubated with drugs under standard culture conditions for five days. Cultures were pulsed with tritiated thymidine (^3H-TdR, New Life Science Products, Boston, Mass.) at 5 μCi per well for the last 48 hours of the culture period. Cell culture plates were then heated to 90° C. to liquefy the agarose, and cells were harvested onto glass fiber filters, which were then placed into counting vials containing liquid scintillation fluid. The radioactivity trapped on the filters was counted with a Beckman scintillation counter. The fraction of surviving cells was determined by comparing ^3H-TdR incorporation in treated (experimental points) and untreated (negative control) wells. All drug concentrations are presented as μM, allowing for normalization of drug response curves and direct comparison of the effects of the drugs. Microsoft Excel was used to organize the raw data on EDR experiments, and the SigmaPlot program was utilized to generate drug response curves. All drug response curves were as approximated as sigmoidal equations (characteristic for typical drug response curves) to fit the data. IC50 values were determined using the approximated sigmoidal curves and expressed as μM.

SMILES	pIC50
CC(=O)OCOC(=O)C=CC=Cc1ccccc1 [5-phenyl-2,4-pentadienoyloxymethyl acetate]	4.70
CC(=O)OCOC(=O)C=CSc1ccccc1 [3-(phenylthio)acryloyloxymethyl acetate]	4.52
CC(=O)OCOC(=O)CC=CC=Cc1ccccc1 [6-phenyl-3,5-hexadienoyloxymethyl acetate]	4.74
CC(=O)OCOC(=O)CCCC1CCCCC1 [4-cyclohexanebutyroyloxymethyl acetate]	4.63

The remaining lines, values ahead:

pIC50	SMILES
8.30	CC(/C=C/C(=O)NO)=C\[C@@H](C)C(=O)c1ccc(N(C)C)cc1 [trichostatin, reference compound]
4.90	CC(=O)OCOC(=O)C=Cc1ccccc1 [cinnamoyloxymethyl acetate]
< 2.70	CCCC(=O)O [butyric acid, reference compound]
4.60	CC(=O)OCOC(=O)C#Cc1ccccc1 [phenylpropioloyloxymethyl acetate]
4.55	CC(=O)OCOC(=O)CSCc1ccccc1 [S-benzylthioglycoloyloxymethyl acetate]
